{
  "source": "patent US4940713A",
  "about": "“Substituted glutamic acids” (Burroughs Wellcome Co., priority 1988, dated 1990)",
  "key": {"Spiroplasma citri": {"test_system": "Spiroplasma citri", "assay": "Activity Against Spiroplasma citri, Sensitivity Test", "format": "cell-based", "settings": "in words", "description": "Frozen broth cultures are diluted to a predetermined titre of 100 color changing units for the test. Organisms are grown in Difco PPLO broth base with added serum, glucose, phenol red, ampicillin, thallium acetate and yeast extract. Incubation is at 32° C. Incubation with varying levels of the test compound in the above medium are performed in well plates and an amount of Spiroplasma citri cells is added that will produce a color change by a fixed time of growth. The lowest concentration of compound that fails to produce a color change or gives a two day delay in color change indicates minimum inhibitory concentration."}, "[1]": {"test_system": "MCF-7 breast adenocarcinoma", "assay": "Cytotoxicity Assay, MCF-7 (MTT dye reduction assay)", "format": "cell-based", "settings": "72 hours", "description": "Cells and Medium: MCF-7 breast adenocarcinoma, obtained from the American Type Culture Collection (ATCC) is grown in RPMI 1640 medium supplemented with 10 nM calcium leucovorin instead of folic acid as the folate source, 10% dialyzed fetal calf serum, penicillin, streptomycin and sodium pyruvate (110 μg/ml).\nCytotoxicity Assay: Cells are seeded into 96 well plates using a Perkin Elmer Pro/pette. MCF-7 cells are seeded at 15,000 cells per well in 150 μl of medium. Prior to the addition of drugs, cultures were incubated for 24 hours at 37°. Compounds were added at 2× concentration in 150 μl of medium and each concentration was assayed in triplicate. Cultures were incubated for 72 hours in a 37° humidified incubator at 5% CO2. Inhibition of cell growth was measured using the MTT dye reduction assay.\nMTT Dye Reduction Assay: Cell dilutions for a standard curve were prepared from a 72 hour log-phase culture. Serial dilutions were seeded in triplicate in 96 well plates and incubated at 37° for 1 hour. MTT (3-(4,5-dimethylthiazol-2-yl)-2,5-diphenyltetrazolium bromide) was dissolved in phosphate buffered saline at 5 mg/ml and sonicated for 30 seconds. Using the Perkin Elmer Pro/pette, 200 μl of medium was removed and 100 μl of MTT added to the wells of the standard curve and test plates. Suspension cultures were spun for 5 minutes at 1000 rpm before removing medium from the wells. Plates were incubated for 1 hour at 37° on a platform shaker. Following this incubation, 100 μl of medium was removed from the wells and 100 μl of DMSO added to each well. The plates were sonicated for approximately 10 seconds to solubilize the precipitated formazan dye. The absorbance of each well was measured using a Titertek Multiskan MC microtiter plate reader at 570 nm with a reference wavelength of 750 nm."}, "yellow fever virus": {"test_system": "yellow fever virus", "settings": "in words"}, "mouse L cells [2]": {"test_system": "mouse L cells"}, "mouse L cells [3]": {"test_system": "mouse L cells", "assay": "Reversal of Cytotoxic Activity on mouse L cells"}, "Streptococcus faecium": {"test_system": "Streptococcus faecium", "assay": "Activity against Streptococcus faecium", "format": "cell-based", "settings": "in words"}, "Lactobacillus casei": {"test_system": "Lactobacillus casei", "assay": "Activity against Lactobacillus casei", "format": "cell-based", "settings": "in words"}, "[4]": {"assay": "Stability on extended exposure to light", "format": "physicochemical", "settings": "white powder"}},
  "note": "Like-named read-outs stand apart in the source and are kept apart here.",
  "data": [
    {"smiles": "Nc1nc(N)c(CCCN(C=O)c2ccc(C(=O)N[C@@H](CCC(=O)O)C(=O)O)cc2)c(=O)[nH]1", "note": "[Example 3, N-[4-[3-(2,4-Diamino-1,6-dihydro-6-oxo-5-pyrimidinyl)-N-formylpropylamino]benzoyl]-L-glutamic acid]", "values": [
      {"measurement": "activity against Spiroplasma citri", "setting": "Spiroplasma citri", "value": "activity against the mycoplasma, Spiroplasma citri"},
      {"measurement": "inhibiting the growth of MCF-7 cells", "setting": "[1]", "value": "active in inhibiting the growth of MCF-7 cells"},
      {"measurement": "activity against yellow fever virus", "setting": "yellow fever virus", "value": "some activity against yellow fever virus"}
    ]},
    {"smiles": "O=c1[nH]cnc2nc[nH]c12", "note": "[hypoxanthine]", "values": [
      {"measurement": "reversal of the cytotoxicity of the compound of Example 1", "setting": "mouse L cells [2]", "value": "able to reverse the cytotoxicity of the compound of Example 1"},
      {"measurement": "reversal of the cytotoxicity of the compound of Example 3", "setting": "mouse L cells [2]", "value": "able to reverse the cytotoxicity of the compound of Example 3"}
    ]},
    {"smiles": "CN(CCCc1c(N)nc(N)[nH]c1=O)c1ccc(C(=O)N[C@@H](CCC(=O)O)C(=O)O)cc1", "note": "[Example 2, N-[4-[3-(2,4-diamino-1,6-dihydro-6-oxo-5-pyrimidinyl)-N-methylpropylamino]benzoyl]-L-glutamic acid]", "values": [
      {"measurement": "activity against Spiroplasma citri", "setting": "Spiroplasma citri", "value": "activity against the mycoplasma, Spiroplasma citri"},
      {"measurement": "inhibiting the growth of MCF-7 cells", "setting": "[1]", "value": "active in inhibiting the growth of MCF-7 cells"}
    ]},
    {"smiles": "NC(=O)c1ncn([C@@H]2O[C@H](COP(=O)(O)O)[C@@H](O)[C@H]2O)c1N", "note": "[AICAR, 5-aminoimidazole-4-carboxamide ribonucleotide]", "values": [
      {"measurement": "reversal of the cytotoxicity of the compound of Example 3", "setting": "mouse L cells [3]", "value": "able to reverse the cytotoxicity of the compound of Example 3"}
    ]},
    {"smiles": "Nc1nc2c(c(=O)[nH]1)N(C=O)C(CNc1ccc(C(=O)N[C@@H](CCC(=O)O)C(=O)O)cc1)CN2", "note": "(stereo partly shown) [calcium leucovorin]", "values": [
      {"measurement": "reversal of the cytotoxicity of the compound of Example 1", "setting": "mouse L cells [2]", "value": "able to reverse the cytotoxicity of the compound of Example 1"},
      {"measurement": "reversal of the cytotoxicity of the compound of Example 3", "setting": "mouse L cells [2]", "value": "able to reverse the cytotoxicity of the compound of Example 3"}
    ]},
    {"smiles": "Nc1nc(N)c(CCCNc2ccc(C(=O)N[C@@H](CCC(=O)O)C(=O)O)cc2)c(=O)[nH]1", "note": "[Example 1, N-[4-[3-(2,4-diamino-1,6-dihydro-6-oxo-5-pyrimidinyl)propylamino]benzoyl]-L-glutamic acid]", "values": [
      {"measurement": "activity against Spiroplasma citri", "setting": "Spiroplasma citri", "value": "activity against the mycoplasma, Spiroplasma citri"},
      {"measurement": "activity against Streptococcus faecium", "setting": "Streptococcus faecium", "value": "possess activity against certain bacterial organisms"},
      {"measurement": "activity against Lactobacillus casei", "setting": "Lactobacillus casei", "value": "possess activity against certain bacterial organisms"},
      {"measurement": "inhibiting the growth of MCF-7 cells", "setting": "[1]", "value": "active in inhibiting the growth of MCF-7 cells"},
      {"measurement": "activity against yellow fever virus", "setting": "yellow fever virus", "value": "some activity against yellow fever virus"}
    ]},
    {"smiles": "CN(CCc1c(N)nc(N)[nH]c1=O)c1ccc(C(=O)N[C@@H](CCC(=O)O)C(=O)O)cc1", "note": "[Example 5, N-[4-[2-(2,4-diamino-1,6-dihydro-6-oxo-5-pyrimidinyl)ethyl-N-methylamino]benzoyl]-L-glutamic acid]", "values": [
      {"measurement": "appearance upon extended exposure to light", "setting": "[4]", "value": "became tan upon extended exposure to light"}
    ]}
  ]
}
